Experimental data reported in patent US11780845B2 (Relay Therapeutics, Inc., priority 2019, dated 2023).

What was measured:
FGFR2 = FGFR2 (Homo sapiens (Human), UniProt P21802); assay: FGFR2 Biochemical Caliper Assay
Description: Compounds of the present invention were also tested in a FGFR2 Biochemical Caliper Assay. Compounds were prepared in 10 mM DMSO solution and serially diluted into 11 concentrations by 3-fold dilution. […] 5 uL of ATP solution (100 uM) was added to start the reaction and the plate was incubated for 90 minutes, then 70 uL of stopping buffer (0.5M EDTA) was added to terminate the reaction. Each well was analyzed using EZ reader.

SNU16 cells = assay: SNU16 Cancer Cell Line Proliferation Assay; type: cell-based; settings: Homo sapiens; SNU-16 cells
How it was run: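 Proliferation read-out: CellTiter Glo chemiluminescence after 96 h compound exposure. Test compounds, serially diluted 3-fold over 11 points from a 10 mM DMSO stock, were added to SNU16 cells plated 24 h earlier at 37 degrees.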

FGFR2, sequence (P21802 22-821): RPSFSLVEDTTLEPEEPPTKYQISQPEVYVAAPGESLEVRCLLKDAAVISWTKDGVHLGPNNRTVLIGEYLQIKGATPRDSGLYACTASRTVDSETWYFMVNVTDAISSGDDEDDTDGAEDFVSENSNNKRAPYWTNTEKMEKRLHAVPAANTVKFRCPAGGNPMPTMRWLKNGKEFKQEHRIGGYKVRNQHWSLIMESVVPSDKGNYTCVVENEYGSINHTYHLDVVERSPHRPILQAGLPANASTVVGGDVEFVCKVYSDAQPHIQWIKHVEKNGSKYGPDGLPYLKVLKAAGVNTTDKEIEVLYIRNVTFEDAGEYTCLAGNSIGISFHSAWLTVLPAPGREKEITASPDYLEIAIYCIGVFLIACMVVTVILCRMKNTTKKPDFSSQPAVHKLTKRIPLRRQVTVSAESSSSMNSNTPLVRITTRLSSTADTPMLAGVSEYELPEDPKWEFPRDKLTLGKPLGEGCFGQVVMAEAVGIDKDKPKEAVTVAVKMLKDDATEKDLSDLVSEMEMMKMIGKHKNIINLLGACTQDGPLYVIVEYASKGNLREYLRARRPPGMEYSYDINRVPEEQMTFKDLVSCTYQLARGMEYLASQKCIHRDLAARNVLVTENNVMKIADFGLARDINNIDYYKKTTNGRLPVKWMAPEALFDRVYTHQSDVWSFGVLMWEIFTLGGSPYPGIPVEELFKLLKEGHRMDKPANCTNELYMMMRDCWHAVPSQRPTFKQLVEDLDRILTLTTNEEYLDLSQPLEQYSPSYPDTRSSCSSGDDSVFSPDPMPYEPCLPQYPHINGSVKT

Row | SMILES | IC50 (FGFR2) | IC50 (SNU16 cells)
1 | C=CC(=O)N1CCC(c2c(-c3ccc(C(=O)N4CCOCC4)cc3)c3c(N)ncnc3n2C)C1 (centres unmarked) [Example 722] | 1 to 100 µM | 1 to 100 µM
2 | C=CC(=O)N1CCC(c2c(-c3cnn(CC(F)(F)F)c3)c3c(N)ncnc3n2C)C1 (centres unmarked) [Example 723] | 1 to 100 µM | 1 to 100 µM
3 | C=CC(=O)N1CCC(c2c(-c3ccc(CN4CC[C@@H](O)C4)cc3)c3c(N)ncnc3n2C)C1 (some centres unmarked) [Example 724] | 1 to 100 µM | 1 to 100 µM
4 | C=CC(=O)N1CCC(c2c(-c3ccc(C(=O)Nc4ccccn4)cc3)c3c(N)ncnc3n2C)C1 (centres unmarked) [Example 725] | < 0.1 µM | 0.1 to 0.25 µM
5 | C=CC(=O)N1CCC(c2c(-c3cnn(C4CCCC4)c3)c3c(N)ncnc3n2C)C1 (centres unmarked) [Example 726] | 1 to 100 µM | 1 to 100 µM
6 | C=CC(=O)N1CCC(c2c(-c3ccc(C(=O)N4CCC4)c(F)c3)c3c(N)ncnc3n2C)C1 (centres unmarked) [Example 727] | 1 to 100 µM | 1 to 100 µM
7 | C=CC(=O)N1CCC(c2c(-c3ccc(Oc4ncccn4)cc3)c3c(N)ncnc3n2CCN2CCOCC2)C1 (centres unmarked) [Example 728] | 1 to 100 µM | 1 to 100 µM
8 | C=CC(=O)N1CCC(c2c(-c3ccc(COc4ccccc4)cc3)c3c(N)ncnc3n2C)C1 (centres unmarked) [Example 729] | 0.1 to 0.25 µM | 0.1 to 0.25 µM
9 | C=CC(=O)N1CC[C@H](c2[nH]c3ncnc(N)c3c2-c2ccc(Oc3ncccn3)cc2)C1 [Example 730] | 0.25 to 1 µM | 1 to 100 µM
10 | C=CC(=O)N1CCC(c2c(-c3ccc(C(=O)N4CCSC4)cc3)c3c(N)ncnc3n2C)C1 (centres unmarked) [Example 731] | 0.25 to 1 µM | 0.25 to 1 µM
11 | C=CC(=O)N1CCC(c2c(-c3cnn(CC4CCNCC4)c3)c3c(N)ncnc3n2C)C1 (centres unmarked) [Example 732] | 0.1 to 0.25 µM | 1 to 100 µM
12 | C=CC(=O)N1CCC(c2c(-c3ccc(OCC(F)(F)F)nc3)c3c(N)ncnc3n2C)C1 (centres unmarked) [Example 733] | 0.25 to 1 µM | 0.25 to 1 µM
13 | C=CC(=O)N1CCC(c2c(-c3ccc(OCC4CC4)cc3)c3c(N)ncnc3n2C)C1 (centres unmarked) [Example 734] | 0.1 to 0.25 µM | ≤ 0.1 µM
14 | C=CC(=O)N1CCC(c2c(-c3ccc(C(=O)N4CCCC4)cc3)c3c(N)ncnc3n2C)C1 (centres unmarked) [Example 735] | 0.25 to 1 µM | 0.25 to 1 µM
15 | C=CC(=O)N1CCC(c2c(-c3cnn(C4CCOC4)c3)c3c(N)ncnc3n2C)C1 (centres unmarked) [Example 736] | 1 to 100 µM | 1 to 100 µM
16 | C=CC(=O)N1CCC(c2c(-c3cnn(C(C)C)c3)c3c(N)ncnc3n2C)C1 (centres unmarked) [Example 737] | 1 to 100 µM | 1 to 100 µM
17 | C=CC(=O)N1CCC(c2c(-c3ccc(Oc4ncccn4)cc3)c3c(N)ncnc3n2CCN2CCN(C)CC2)C1 (centres unmarked) [Example 738] | 1 to 100 µM | 1 to 100 µM
18 | C=CC(=O)N1CCC(c2c(-c3ccc(Oc4ncc(Cl)cn4)cc3)c3c(N)ncnc3n2C)C1 (centres unmarked) [Example 739] | 0.1 to 0.25 µM | ≤ 0.1 µM
19 | C=CC(=O)N1CC[C@@H](c2c(-c3ccc(Oc4ncccn4)cc3)c3c(N)ncnc3n2CCN2CCOCC2)C1 [Example 740] | 1 to 100 µM | 1 to 100 µM
20 | C=CC(=O)N1CC[C@H](c2c(-c3ccc(Oc4ncccn4)cc3)c3c(N)ncnc3n2CCN2CCOCC2)C1 [Example 741] | 1 to 100 µM | 1 to 100 µM
21 | C=CC(=O)N1CCC(c2c(-c3cnn(C4CCNCC4)c3)c3c(N)ncnc3n2C)C1 (centres unmarked) [Example 742] | 1 to 100 µM | 1 to 100 µM

Row | SMILES | IC50 (FGFR2) | IC50 (SNU16 cells)
22 | C=CC(=O)N1CCC(c2c(-c3cnn(C4CCN(C)CC4)c3)c3c(N)ncnc3n2C)C1 (centres unmarked) [Example 743] | 0.25 to 1 µM | 1 to 100 µM
23 | C=CC(=O)N1CCC(c2[nH]c3ncnc(N)c3c2-c2ccc(Oc3cccc(C)n3)cc2)C1 (centres unmarked) [Example 744] | < 0.1 µM | ≤ 0.1 µM
24 | C=CC(=O)N1CCC(c2c(-c3ccc(Oc4ccc(Cl)c(C)n4)cc3)c3c(N)ncnc3n2C)C1 (centres unmarked) [Example 745] | 1 to 100 µM | 1 to 100 µM
25 | C=CC(=O)N1CCC(c2[nH]c3ncnc(N)c3c2-c2ccc(C(=O)N3CCCC3)cc2)C1 (centres unmarked) [Example 746] | < 0.1 µM | 0.25 to 1 µM
26 | CC#CC(=O)N1CCC(c2c(-c3ccc(C(=O)N4CCCC4)cc3)c3c(N)ncnc3n2C)C1 (centres unmarked) [Example 747] | < 0.1 µM | ≤ 0.1 µM
27 | C=CC(=O)N1CCC(c2c(-c3ccc(OCc4ccccc4)cc3)c3c(N)ncnc3n2C)C1 (centres unmarked) [Example 748] | 0.1 to 0.25 µM | 0.25 to 1 µM
28 | C=CC(=O)N1CCC(c2c(-c3ccc(SC4CCCC4)cc3)c3c(N)ncnc3n2C)C1 (centres unmarked) [Example 749] | < 0.1 µM | ≤ 0.1 µM
29 | C=CC(=O)N1CCC(c2c(-c3ccc(C(=O)N4CCCCC4)cc3)c3c(N)ncnc3n2C)C1 (centres unmarked) [Example 750] | < 0.1 µM | ≤ 0.1 µM
30 | C=CC(=O)N1CCC(c2c(-c3ccc(C4CCOCC4)cc3)c3c(N)ncnc3n2C)C1 (centres unmarked) [Example 751] | 0.25 to 1 µM | 0.1 to 0.25 µM
31 | C=CC(=O)N1CCC(c2c(-c3ccc(CN4CCC(C)(C)C4)cc3)c3c(N)ncnc3n2C)C1 (centres unmarked) [Example 753] | 1 to 100 µM | 1 to 100 µM
32 | C=CC(=O)N1CCC(c2c(-c3ccc(NC(=O)NC4CC4)cc3)c3c(N)ncnc3n2C)C1 (centres unmarked) [Example 755] | < 0.1 µM | 1 to 100 µM
33 | C=CC(=O)N1CCC(c2c(-c3ccc(OC4CC4)cc3)c3c(N)ncnc3n2C)C1 (centres unmarked) [Example 756] | 0.1 to 0.25 µM | ≤ 0.1 µM
34 | C=CC(=O)N1CCC(c2c(-c3csc(CN4CCOCC4)c3)c3c(N)ncnc3n2C)C1 (centres unmarked) [Example 757] | 1 to 100 µM | 1 to 100 µM
35 | C=CC(=O)N1CCC(c2c(-c3ccc(OC4CCC4)cc3)c3c(N)ncnc3n2C)C1 (centres unmarked) [Example 758] | < 0.1 µM | ≤ 0.1 µM
36 | C=CC(=O)N1CCC(c2c(-c3ccc(Oc4ccc(C(F)(F)F)cn4)cc3)c3c(N)ncnc3n2C)C1 (centres unmarked) [Example 759] | 0.25 to 1 µM | 0.25 to 1 µM
37 | C=CC(=O)N1CCC(c2c(-c3ccc(C(=O)c4ccccc4)cc3)c3c(N)ncnc3n2C)C1 (centres unmarked) [Example 760] | < 0.1 µM | ≤ 0.1 µM
38 | C=CC(=O)N1CCC(c2c(-c3ccc(C(=O)C4CC4)cc3)c3c(N)ncnc3n2C)C1 (centres unmarked) [Example 761] | 0.1 to 0.25 µM | 0.1 to 0.25 µM
39 | C=CC(=O)N1CCC(c2c(-c3ccc(C4CCC(=O)N4)cc3)c3c(N)ncnc3n2C)C1 (centres unmarked) [Example 762] | 1 to 100 µM | 1 to 100 µM
40 | C=CC(=O)N1CCC(c2c(-c3ccc(CN4CCCC4)cc3)c3c(N)ncnc3n2C)C1 (centres unmarked) [Example 763] | 0.25 to 1 µM | 0.25 to 1 µM
41 | C=CC(=O)N1CCC(c2c(-c3ccc(CC(=O)N(C)C)cc3)c3c(N)ncnc3n2C)C1 (centres unmarked) [Example 764] | 1 to 100 µM | 1 to 100 µM
42 | C=CC(=O)N1CCC(c2c(-c3ccc(-c4ncc[nH]4)cc3)c3c(N)ncnc3n2C)C1 (centres unmarked) [Example 765] | < 0.1 µM | 1 to 100 µM

Row | SMILES | IC50 (FGFR2) | IC50 (SNU16 cells)
43 | C=CC(=O)N1CCC(c2c(-c3ccc(-c4cnn(C)c4)cc3)c3c(N)ncnc3n2C)C1 (centres unmarked) [Example 766] | 0.25 to 1 µM | 0.25 to 1 µM
44 | C=CC(=O)N1CCC(c2c(-c3ccc(-c4noc(C)n4)cc3)c3c(N)ncnc3n2C)C1 (centres unmarked) [Example 767] | 0.25 to 1 µM | 0.1 to 0.25 µM
45 | C=CC(=O)N1CCC(c2c(-c3ccc(-c4ccno4)cc3)c3c(N)ncnc3n2C)C1 (centres unmarked) [Example 768] | 0.25 to 1 µM | 0.1 to 0.25 µM
46 | C=CC(=O)Nc1ccc(-c2[nH]c3ncnc(N)c3c2-c2ccc(Oc3cccc(C)n3)cc2)cc1 [Example 769] | < 0.1 µM | ≤ 0.1 µM
47 | C=CC(=O)N1CCC(c2c(-c3ccc(NC4CCCC4)cc3)c3c(N)ncnc3n2C)C1 (centres unmarked) [Example 771] | 1 to 100 µM | 1 to 100 µM
48 | C=CC(=O)N1CCC(c2c(-c3ccc(Cn4cccn4)cc3)c3c(N)ncnc3n2C)C1 (centres unmarked) [Example 772] | < 0.1 µM | ≤ 0.1 µM
49 | C=CC(=O)N1CCC(c2c(-c3ccc(NC4CCOCC4)cc3)c3c(N)ncnc3n2C)C1 (centres unmarked) [Example 773] | 1 to 100 µM | 1 to 100 µM
50 | CC#CC(=O)N1CCC(c2[nH]c3ncnc(N)c3c2-c2ccc(C(=O)N3CCCC3)cc2)C1 (centres unmarked) [Example 774] | 1 to 100 µM | 1 to 100 µM
51 | C=CC(=O)N1CCC(c2[nH]c3ncnc(N)c3c2-c2ccc(Oc3ccc(C)cn3)cc2)C1 (centres unmarked) [Example 775] | 0.1 to 0.25 µM | 1 to 100 µM
52 | C=CC(=O)N1CCC(c2c(-c3ccc(Cn4ccc(C)n4)cc3)c3c(N)ncnc3n2C)C1 (centres unmarked) [Example 776] | < 0.1 µM | ≤ 0.1 µM
53 | C=CC(=O)N(C)c1ccc(-c2[nH]c3ncnc(N)c3c2-c2ccc(Oc3cccc(C)n3)cc2)cc1 [Example 777] | 1 to 100 µM | 1 to 100 µM
54 | C=CC(=O)N1CCC(c2c(-c3cnn(-c4cccnc4)c3)c3c(N)ncnc3n2C)C1 (centres unmarked) [Example 778] | < 0.1 µM | ≤ 0.1 µM
55 | C=CC(=O)N1CCC(c2c(-c3cnn(-c4ccccn4)c3)c3c(N)ncnc3n2C)C1 (centres unmarked) [Example 779] | 1 to 100 µM | 1 to 100 µM
56 | C=CC(=O)N1CCC(c2c(-c3cnn(CC4CCN(C(C)=O)CC4)c3)c3c(N)ncnc3n2C)C1 (centres unmarked) [Example 780] | 0.25 to 1 µM | 0.25 to 1 µM
57 | C=CC(=O)N1CCC(c2c(C3=CCC(CO)CC3)c3c(N)ncnc3n2C)C1 (centres unmarked) [Example 781] | 1 to 100 µM | 1 to 100 µM
58 | C=CC(=O)N1CCC(c2c(-c3ccc(OC4CNC4)cc3)c3c(N)ncnc3n2C)C1 (centres unmarked) [Example 782] | 1 to 100 µM | 1 to 100 µM
59 | C=CC(=O)N1CCC(c2c(C3=CCN(C(C)=O)CC3(C)C)c3c(N)ncnc3n2C)C1 (centres unmarked) [Example 783] | 0.1 to 0.25 µM | 1 to 100 µM
60 | C=CC(=O)N1CCC(c2c(-c3ccc(C(=O)C4CCCC4)cc3)c3c(N)ncnc3n2C)C1 (centres unmarked) [Example 784] | 1 to 100 µM | 1 to 100 µM
61 | C=CC(=O)N1CCC(c2c(-c3ccc(S(=O)(=O)C4CC4)cc3)c3c(N)ncnc3n2C)C1 (centres unmarked) [Example 785] | < 0.1 µM | ≤ 0.1 µM
